What was measured:
[1] = test system: iDCs cocultured with aNK cells; test: aNK-dependent maturation of uninfected iDCs in aNK-iDC coculture (CD86/HLA-DR flow cytometry); assay type: cell-based, human; settings: 24 h aNK-iDC coculture, inhibitor 10 μg/ml added at initiation
Description: (a) Left panel: iDCs were cultured for 24 h either alone or with aNK cells, in the presence of blocking anti-HMGB1 antibodies (10 μg/ml) or glycyrrhizin (10 μg/ml). The maturation status of DCs was determined by flow cytometry with CD86 and HLA-DR—specific antibodies. Right panel: same experiment, but performed with HIV-1 infected iDCs. Data represent mean±sd of at least three independent experiments, and statistical comparisons were made with the non parametric Mann-Whitney test. * p<0.05. […] NK cells were excluded from the analysis through the co-staining with CD3- and CD56-specific antibodies (CD3^−CD56^+).
To determine the possible involvement of HMGB1 in NK-dependent DC maturation, glycyrrhizin, which is known to interact specifically with soluble HMGB1 molecule31, was used as well as anti-HMGB1 antibodies (FIG. 3a). […] The possible involvement of RAGE during NK-DC cross-talk was evaluated with the same approach, comparing RAGE expression on DCs cocultured with aNK cells and DC cultured alone.
After 6 days of culture in the presence of IL-4 and GM-CSF, iDCs (10^6 cells/ml) were either non stimulated, or stimulated during 48 h with 10 μg/ml LPS (E. coli serotype 026-B6, Sigma-Aldrich) to obtain DC0 cells, or 500 ng/ml of trimeric CD40L (Sigma-Aldrich) to obtain DC1 cells, or 10 μg/ml of LPS and 1 μg/ml PGE2 (Sigma-Aldrich) to obtain DC2 cells. […]

R5-HIV-1Ba-L = test: HIV-1 replication in infected iDCs (p24 ELISA in culture supernatant); assay type: cell-based; settings: for HIV-1 production (p24 in supernatant): 3 days, inhibitor 10 μg/ml
Description: FIGS. 6 (a), (b) and (c). Exogenous rh-HMGB1 triggers HIV-1 and HIV-2 replication in iDC. (a) HIV-1-infected iDC were cultured alone or in the presence of aNK cells for 3 days. Rh-HMGB1 (1 μg/ml) was added in some cultures. HIV replication was measured by p24 quantification in culture supernatant (b) HIV1-infected iDC were cultured alone or in the presence of aNK cells for 3 days. Blocking anti-HMGB1 antibodies (10 μg/ml) or glycyrrhizin (10 μg/ml) were added at culture initiation. HIV replication was measured by p24 quantification in culture supernatant. The mean±sd of three independent experiments is shown. Statistical comparisons were made with the non parametric Mann-Whitney test. * p<0.05; (c) HIV-2-infected iDC were cultured alone or in the presence of aNK cells for 3 days. Rh-HMGB1 (1 μg/ml) was added in some cultures. HIV replication was measured by p24 quantification in culture supernatant.
Exogenous HMGB1 was recently reported to increase HIV-1 replication in infected monocytic cell lines38, and to induce in vitro the reactivation of HIV-1 in PBMCs from HIV-1-infected patients under antiretroviral therapy39. Therefore, the question of the role of HMGB1 in the NK-dependent triggering of HIV replication in DCs was addressed. […] To investigate the influence of HMGB1 in the triggering of HIV-1 replication in infected-iDC-aNK cocultures, HMGB1-specific neutralizing antibodies or glycyrrhizin were added to these cocultures and p24 production was measured in the supernatant. […] They also indicate that aNK cell-dependent stimulation of HIV-1 replication in iDCs is mediated by HMGB1.
Virus stock preparation was prepared by amplification of R5-HIV-1Ba-L on MDM from healthy donors. Viral stock was then clarified by centrifugation prior to determination of HIV1 p24 concentration. iDCs were plated in 96-well culture plates at 200,000 cells/well and incubated for 3 hours at 37° C. in a 5% CO2 atmosphere with R5-HIV-1BAL at various concentrations (0.001 to 10 ng p24/ml). Cells were harvested, washed four times with media containing 10% FCS and, when indicated, rNK or aNK cells were added at a NK:DC ratio of 1:5, unless otherwise indicated. NK-DC cocultures lasted 24 h before analysis of the maturation stage of DCs and/or quantification of viral production. In some experiments (FIG. 6), HIV-1 infected iDCs were incubated alone or with aNK cells for 3 days, in the presence of rh-HMGB1 (1 μg/ml) (R&DSystems), and in some cultures in the presence of rabbit antiHMGB1 Abs (10 μg/ml) (Abcam, Cambridge, UK) or Glycyrrhizin (10 μg/ml).
The concentration of HIV-1 in the supernatant of infected cell cultures was determined by measuring the amount of p24 protein by ELISA (Ingen, Belgium). DNA from cells was extracted using the GIAamp DNA Blood Mini Kit (Qiagen, Basel, Switzerland) and quantified HIV-1 proviral load by RT-PCR as described previously54. The frequency of HIV-1-infected cells was determined by flow cytometry to detect intracellular p24 molecule. Cells were surface stained with antibodies specific for CD40 (BD Biosciences, San Jose, Calif.) to target DC and intracellular stained with p24-specific antibodies (Coulter). Stained cells were fixed in 1% PFA, immediately acquired on a FACScalibur (Becton Dickinson) and analyzed with FlowJo software. In some experiments infected DCs were imaged, after immunofluorescence, by laser scanning confocal microscopy.

HIV-1-infected iDCs = test: Apoptosis of HIV-1-infected iDCs (7-AAD assay); assay type: cell-based, human
Description: Living cells are 7-AAA^−, apoptotic cells 7-AAD^+, and apoptotic debris are 7-AAD^−FSC^low. Dot plots represent one of at least three independent experiments. […] Cell death was then quantified with the 7-AAD assay. The mean±sd of three independent experiments was presented.
(a) iDCs or HIV-1-infected iDCs were cultured alone or in the presence of aNK cells (NK:DC ratio of 5:1). […] Cell death was then quantified with the 7-AAD assay. (b) Same experiments were performed in the presence of blocking anti-HMGB1 antibodies (10 and 15 μg/ml). One representative experiment out of three conducted is shown.
Immature DCs (iDCs) were prepared from sorted monocytes from healthy donors, cultured for 6 days in the presence of IL-4 and GM-CSF. In some experiments, iDCs were infected with R5-HIV-1 (1 ng/ml of p24). Coculture experiments with autologous purified aNK cells (activated by PHA+IL-2) were performed at various NK:DC ratios. The influence of NK-DC interaction on DC's maturation and apoptosis was analyzed using multiparametric flow cytometry, combining 7-AAD staining with membrane and intracellular staining with mAbs specific for HLA-DR, DC-SIGN, CD83, CD86, DR4, mTRAIL, etc.
To investigate the impact of HIV on aNK-induced iDCs' apoptosis, iDCs were infected with R5-HIV-1 (1 ng of p24/ml).

iDCs = test: aNK-induced apoptosis of uninfected iDCs (7-AAD assay, NK:DC 5:1); assay type: cell-based, human; settings: NK:DC ratio 5:1, 24 h
Description: FIGS. 9(a)-(g). aNK-dependent apoptosis of iDCs is TNF-related apoptosis-inducing ligand (TRAIL)-dependent and involves the DR4 receptor. (a) CD56^+ NK cells were purified from the blood of healthy donors. NK cells were maintained in culture with suboptimal concentrations of interleukin-2 (IL-2) (100 ng/ml) (rNK cells) or activated (aNK cells) by the addition PHA (10 μg/ml) and IL-2 (10 μg/ml) to cultures. The intensity of staining with anti-CD56 antibodies allows the distinction between two NK cell populations expressing CD56 highly (CD56^bright cells) and weakly (CD56^dim cells). Data represent the mean±sd of three independent experiments. (b) Membrane TRAIL (mTRAIL) expression by NK cells is determined by flow cytometry with anti-CD56 and -mTRAIL specific antibodies. Data represent one of three independent experiments. […] The proportions of mTRAIL-expressing aNK cells among CD56^bright and CD56^dim populations were determined. […] DR4 expression at the DCs surface is analyzed after 1, 2, 3.5, 6 and 24 h of NK-DC coculture. […] Cell death was then quantified with the 7-AAD assay. […] (f) 24 h cell-free culture supernatants of iDCs, rNK cells, aNK cells (10^6/ml), or cocultures of aNK cells and iDCs (ratio 5:1) were tested for soluble TRAIL (sTRAIL) content. sTRAIL was quantified by ELISA. […] The viability status of DCs was determined by flow cytometry with the 7-AAD assay. […]

With CC1(C)[C@@H](O[C@H]2O[C@H](C(=O)O)[C@@H](O)[C@H](O)[C@H]2O[C@@H]2O[C@H](C(=O)O)[C@@H](O)[C@H](O)[C@H]2O)CC[C@]2(C)[C@H]3C(=O)C=C4[C@@H]5C[C@@](C)(C(=O)O)CC[C@]5(C)CC[C@@]4(C)[C@]3(C)CC[C@@H]12 [glycyrrhizin] the “proportions of mature DCs (CD86bright HLA-DRbright)” value [1] was “reduced the proportions of mature DCs”, the HIV-1 replication (R5-HIV-1Ba-L; 24 h cultures of infected iDCs, absence of NK cells) was “decreased significantly HIV-1 replication” and the “HIV-1 production (p24 in supernatant)” value (R5-HIV-1Ba-L; infected DC cocultured with aNK cells) was “abrogated HIV-1 production”. The “HIV-1 production (p24 in supernatant)” value (R5-HIV-1Ba-L; infected DC cultured alone) was “abrogated HIV-1 production” and the “resistance of HIV-1-infected iDCs to aNK-induced apoptosis” value (HIV-1-infected iDCs; NK:DC ratio 5:1, inhibition assays) was “found dependent on HMGB1”.

For C/C=C/[C@H]1O[C@@](O)([C@@H](C)[C@H](O)[C@H](C)[C@H]2OC(=O)/C(OC)=C/C(C)=C/[C@@H](C)[C@@H](O)[C@@H](CC)[C@@H](O)[C@H](C)C/C(C)=C/C=C/[C@@H]2OC)C[C@@H](O[C@H]2C[C@@H](O)[C@H](OC(N)=O)[C@@H](C)O2)[C@@H]1C [Concanamycin A], the “NK-dependent iDCs apoptosis” value (iDCs) was “no effect”.

B1: rhs-TRAIL: recombinant human soluble TRAIL (protein, UniProt P50591 39-281, looked up)
extracellular domain: TNELKQMQDKYSKSGIACFLKEDDSYWDPNDEESMNSPCWQVKWQLRQLVRKMILRTSEETISTVQEKQQNISPLVRERGPQRVAAHITGTRGRSNTLSSPNSKNEKALGRKINSWESSRSGHSFLSNLHLRNGELVIHEKGFYYIYSQTYFRFQEEIKENTKNDKQMVQYIYKYTSYPDPILLMKSARNSCWSKDAEYGLYSIYQGGIFELKENDRIFVSVTNEHLIDMDHEASFFGAFLVG
modifications: extracellular domain
In the case of B1, the “TRAIL-induced apoptosis of HIV-1-infected DCs” value (HIV-1-infected iDCs; 24 h, 1-1000 ng/ml) is reported as “still susceptible to TRAIL-induced apoptosis”.
